From patent US20170058314A1, “NOVEL METHODOLOGY FOR IDENTIFYING ANTI-PERSISTER ACTIVITY AND ANTIMICROBIAL SUSCEPTIBILITY FOR BORRELIA BURGDORFERI AND OTHER BACTERIA” (priority 2014, published 2017)
Counter-ions that a name gives are not always drawn.

How the values were obtained:
[1] = test system: round body form of B. burgdorferi; assay: SYBR Green I/PI assay on amoxicillin-induced round body form; conditions: for viability at 50 µM: Borreliella burgdorferi, 168 h, read-out: Residual viable cells (SYBR Green I/PI assay)
[2] = test system: stationary phase B. burgdorferi persisters (strain B31); assay: SYBR Green I/PI viability assay (plate reader), FDA-approved drug library screen; conditions: for Ratio of Green/Red fluorescence, Primary screening / Ratio of Green/Red fluorescence, Rescreening (first column) / Ratio of Green/Red fluorescence, Rescreening (second column) / Residual viable cells (regression equation, SYBR Green I/PI assay): 50 μM; for Ratio of Green/Red fluorescence, Primary screening / Ratio of Green/Red fluorescence, Rescreening (first column) / Ratio of Green/Red fluorescence, Rescreening (second column): 7 days, stationary phase; for viability at 50 µM: Borreliella burgdorferi, 168 h, read-out: Residual viable cells (regression equation, SYBR Green I/PI assay); for Residual viable cells (regression equation, SYBR Green I/PI assay): 7-day old stationary phase cells treated for 7 days; for activity against stationary phase B. burgdorferi (words; SYBR Green I/PI assay): FDA drug screen

| Compound | viability at 50 µM [1] | Ratios of green/red fluorescence, Primary screening ([1]; round body form, 50 μM, 7 days) | Ratios of green/red fluorescence, Rescreening (first column) ([1]; round body form, 50 μM, 7 days) | Ratios of green/red fluorescence, Rescreening (second column) ([1]; round body form, 50 μM, 7 days) | Ratio of Green/Red fluorescence, Primary screening [2] | Ratio of Green/Red fluorescence, Rescreening (first column) [2] | Ratio of Green/Red fluorescence, Rescreening (second column) [2] | viability at 50 µM [2] | Residual viable cells (regression equation, SYBR Green I/PI assay) [2] | Residual viable cells (SYBR Green I/PI assay) ([1]; round body form, 50 μM, 7 days) | activity against stationary phase B. burgdorferi (words; SYBR Green I/PI assay) [2] |
| --- | --- | --- | --- | --- | --- | --- | --- | --- | --- | --- | --- |
| CN(C)[C@@H]1C(O)=C(C(=O)NCN2CCCC2)C(=O)[C@@]2(O)C(O)=C3C(=O)c4c(O)cccc4[C@@](C)(O)[C@H]3C[C@@H]12 [Rolitetracycline] | 35% | 6.23 | 6.35 | 6.37 |  |  |  |  |  |  |  |
| C=C[C@H]1C[N@@]2CC[C@H]1C[C@H]2[C@H](O)c1ccnc2ccc(OC)cc12 [Quinine hydrobromide] |  |  |  |  | 7.00 | 6.85 | 6.88 | 50% |  |  |  |
| C[C@@H]1[C@H](O)[C@@H](C)/C=C/C=C/C=C/C=C/C=C/C=C/C=C/[C@H](O[C@@H]2O[C@H](C)[C@@H](O)[C@H](N)[C@@H]2O)C[C@@H]2O[C@](O)(C[C@@H](O)C[C@@H](O)[C@H](O)CC[C@@H](O)C[C@@H](O)CC(=O)O[C@H]1C)C[C@H](O)[C@H]2C(=O)O [Amphotericin B] |  |  |  |  | 7.14 | 6.88 | 6.87 |  | 50% |  |  |
| CO/N=C(\C(=O)N[C@@H]1C(=O)N2C(C(=O)[O-])=C(C[N+]3(C)CCCC3)CS[C@H]12)c1csc(N)n1 [Cefepime] |  |  |  |  | 6.67 | 7.16 | 6.45 | 44% |  |  |  |
| Cc1nnc(SCC2=C(C(=O)O)N3C(=O)[C@@H](NC(=O)Cn4cnnn4)[C@H]3SC2)s1 [Cefazolin] | 34% | 6.23 | 6.34 | 6.29 |  |  |  |  |  |  |  |
| COc1c(N2C[C@@H]3CCCN[C@@H]3C2)c(F)cc2c(=O)c(C(=O)O)cn(C3CC3)c12 [moxifloxacin] | 49% |  |  |  |  |  |  |  |  |  |  |
| CC(C)(O/N=C(\C(=O)N[C@@H]1C(=O)N2C(C(=O)[O-])=C(C[n+]3ccccc3)CS[C@H]12)c1csc(N)n1)C(=O)O [Ceftazidime] | 34% | 6.20 | 6.34 | 6.37 |  |  |  |  |  |  |  |
| C[C@H]1COc2c(N3CCN(C)CC3)c(F)cc3c(=O)c(C(=O)O)cn1c23 [levofloxacin] | 41% |  |  |  |  |  |  |  |  |  |  |
| Nc1ccc(S(=O)(=O)Nc2nccs2)cc1 [Sulfathiazole] | 31% | 6.38 | 6.18 | 6.17 |  |  |  |  |  |  |  |
| NCc1ccccc1CC(=O)N[C@@H]1C(=O)N2C(C(=O)O)=C(CSc3nnnn3CC(=O)O)CS[C@H]12 [Ceforanide] |  |  |  |  | 6.89 | 7.49 | 6.33 | 48% |  |  |  |
| CN[C@@H]1[C@@H](O)[C@@H](O[C@@H]2[C@@H](O)[C@H](O[C@H]3OC(CN)=CC[C@H]3N)[C@@H](N)C[C@H]2N)OC[C@]1(C)O [Sisomicin] | 33% | 6.27 | 6.12 | 6.45 |  |  |  |  |  |  |  |
| C[C@H]1[C@H](NC(=O)/C(=N\OC(C)(C)C(=O)O)c2csc(N)n2)C(=O)N1S(=O)(=O)O [Aztreonam] | 34% | 6.16 | 6.38 | 6.33 |  |  |  |  |  |  |  |
| C=CC1=C(C(=O)O)N2C(=O)[C@@H](NC(=O)/C(=N\OCC(=O)O)c3csc(N)n3)[C@H]2SC1 [Cefixime] | 34% | 6.41 | 6.21 | 6.27 |  |  |  |  |  |  |  |
| CCn1cc(C(=O)O)c(=O)c2cc(F)c(N3CCNCC3)cc21 [norfloxacin] | 41% |  |  |  |  |  |  |  |  |  |  |
| C=CC1=C(C(=O)O)N2C(=O)[C@@H](NC(=O)/C(=N\O)c3csc(N)n3)[C@H]2SC1 [Cefdinir] |  |  |  |  | 6.88 | 7.51 | 6.29 | 48% |  |  |  |
| Nc1ccc(S(=O)(=O)O)cc1 [Sulfanilate] |  | 6.49 | 6.03 | 6.40 |  |  |  |  |  | 34% |  |
| CC1(C)S[C@@H]2[C@H](NC(=O)[C@H](C(=O)O)c3ccsc3)C(=O)N2[C@H]1C(=O)O [Ticarcillin] |  |  |  |  | 6.82 | 6.72 | 6.93 | 46% |  |  |  |

| Compound | viability at 50 µM [1] | Ratios of green/red fluorescence, Primary screening ([1]; round body form, 50 μM, 7 days) | Ratios of green/red fluorescence, Rescreening (first column) ([1]; round body form, 50 μM, 7 days) | Ratios of green/red fluorescence, Rescreening (second column) ([1]; round body form, 50 μM, 7 days) | Ratio of Green/Red fluorescence, Primary screening [2] | Ratio of Green/Red fluorescence, Rescreening (first column) [2] | Ratio of Green/Red fluorescence, Rescreening (second column) [2] | viability at 50 µM [2] | Residual viable cells (regression equation, SYBR Green I/PI assay) [2] | Residual viable cells (SYBR Green I/PI assay) ([1]; round body form, 50 μM, 7 days) | activity against stationary phase B. burgdorferi (words; SYBR Green I/PI assay) [2] |
| --- | --- | --- | --- | --- | --- | --- | --- | --- | --- | --- | --- |
| O=C(O)C1=C(CSc2nnnn2CS(=O)(=O)O)CS[C@@H]2[C@H](NC(=O)[C@H](O)c3ccccc3)C(=O)N12 [Cefonicid] |  |  |  |  | 6.86 | 7.54 | 6.07 | 46% |  |  |  |
| CO/N=C(\C(=O)N[C@@H]1C(=O)N2C(C(=O)O)=C(CSc3nnnn3C)CS[C@H]12)c1csc(N)n1 [Cefmenoxime] | 32% | 6.18 | 6.33 | 6.28 | 6.82 | 7.59 | 6.32 | 48% |  |  |  |
| C=C1c2c(Cl)ccc(O)c2C(=O)C2=C(O)[C@]3(O)C(=O)C(C(N)=O)=C(O)[C@@H](N(C)C)[C@@H]3[C@@H](O)[C@H]12 [Meclocycline] | 33% | 6.52 | 6.23 | 6.09 |  |  |  |  |  |  |  |
| O=[N+]([O-])c1ccc(/C=N/O)o1 [Nifuroxime] | 30% | 6.10 | 6.32 | 6.22 |  |  |  |  |  |  |  |
| [Bi] [Bismuth] |  |  |  |  | 6.94 | 6.82 | 6.92 |  | 48% |  |  |
| COc1cnc(NS(=O)(=O)c2ccc(N)cc2)nc1 [Sulfameter] |  |  |  |  | 7.13 | 7.46 | 6.98 | 54% |  |  | effective |
| CCS(=O)(=O)CCn1c([N+](=O)[O-])cnc1C [Tinidazole] | 33% | 6.24 | 6.21 | 6.36 |  |  |  |  |  |  |  |
| Collistin |  |  |  |  | 7.15 | 7.26 | 7.23 |  |  |  |  |
| CCN(CC)Cc1cc(Nc2ccnc3cc(Cl)ccc23)ccc1O [Amodiaquin] |  |  |  |  | 6.79 | 6.44 | 6.85 | 45% |  |  |  |
| CO/N=C(\C(=O)N[C@@H]1C(=O)N2C(C(=O)O)=CCS[C@H]12)c1csc(N)n1 [Ceftizoxime] |  |  |  |  | 6.94 | 6.83 | 7.03 | 49% |  |  |  |
| C[C@@H]1O[C@@H]1P(=O)(O)O [Fosfomycin] | 31% | 6.39 | 6.12 | 6.16 |  |  |  |  |  |  |  |
| COc1ccc(NS(=O)(=O)c2ccc(N)cc2)nn1 [Sulfamethoxypyridazine] | 30% | 6.20 | 6.07 | 6.34 |  |  |  |  |  |  |  |
| CC(=O)NS(=O)(=O)c1ccc(N)cc1 [Sulfacetamide] | 29% | 6.26 | 6.14 | 6.20 |  |  |  |  |  |  |  |
| Cn1nnnc1SCC1=C(C(=O)O)N2C(=O)[C@@H](NC(=O)[C@H](O)c3ccccc3)[C@H]2SC1 [Cefamandole] |  |  |  |  | 6.71 | 7.73 | 6.52 | 50% |  |  |  |
| CN(C)[C@@H]1C(O)=C(C(N)=O)C(=O)[C@@]2(O)C(O)=C3C(=O)c4c(O)ccc(Cl)c4[C@@](C)(O)[C@H]3C[C@@H]12 [Chlortetracycline] | 31% | 6.20 | 6.36 | 6.18 |  |  |  |  |  |  |  |
| Cc1noc(NS(=O)(=O)c2ccc(N)cc2)c1C [Sulfisoxazole] | 33% | 6.53 | 6.15 | 6.18 |  |  |  |  |  |  | effective |
